{"source": "paper PMC10669474", "about": "“An Exploration of Small Molecules That Bind Human Single-Stranded DNA Binding Protein 1” (Biology, 2023)", "key": {"E. coli SSB": {"system": "E. coli SSB", "design": "method as in PMID 27609050", "details": "ssDNA interaction; cited from earlier work"}, "hSSB1 [1]": {"molecular_target": "T1, hSSB1 (Homo sapiens, UniProt Q9BQ15)", "T1 construct": "6xHis (N); made in house; host or cells: E. coli BL21 (DE3*)", "T1 sequence (Q9BQ15 whole entry)": "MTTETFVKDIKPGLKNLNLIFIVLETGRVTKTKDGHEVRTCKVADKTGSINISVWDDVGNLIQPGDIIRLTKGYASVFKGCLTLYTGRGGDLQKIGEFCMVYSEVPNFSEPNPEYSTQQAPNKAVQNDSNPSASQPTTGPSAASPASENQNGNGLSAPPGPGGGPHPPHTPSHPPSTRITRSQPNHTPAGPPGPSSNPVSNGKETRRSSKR", "assay": "AlphaLISA competition dose-response binding assay", "details": "for binding to hSSB1 in the AlphaLISA: triplicate; for pKd: as restated in discussion, read-out: affinity to hSSB1 in AlphaLISA binding assays", "description": "To analyse the binding of compounds to hSSB1 and design a screening assay, we used Perkin Elmer’s AlphaLISA technology. The full assay design is described in the Supplementary Information. The optimal assay conditions were determined with a series of titration matrices to be 0.5 nM hSSB1, 5 nM In3-PD-biotin, 1 nM anti-hSSB1 antibody, 10 μg/mL SA donor beads, and 5 μg/mL protein G acceptor beads in a 16 μL reaction volume. These were combined in a buffer containing 10 mM Tris (pH 7.5), 100 mM NaCl, 0.1% β-mercaptoethanol, and 0.01% IGEPAL. First, an 8 μL mix of hSSB1, anti-hSSB1 antibody, and acceptor beads was prepared, which was added to the compound of interest and incubated for 1 h. Second, an 8 μL aliquot of a solution containing In3-PD-biotin and SA donor beads was added to the well. This was incubated before imaging with an EnSight Multimode Plate Reader (PerkinElmer, Shelton, CT, USA) at 10, 60, and 120 min. The assay was designed in a competition format so that the Cheng–Prusoff equation was met and the IC50 approximated the Kd.\nDose–response curves were obtained for hit compounds and compared with TDRL-551. The same AlphaLISA competition format was used to determine the IC50/Kd of compounds binding to hSSB1. Each compound was dissolved in DMSO before being dispensed into a white 384-well microplate (PerkinElmer, Shelton, CT, USA) using a FlexDrop iQ. […]\n1.1.1 Design of the AlphaLISA screening assay\nTo test whether the compounds bind to hSSB1 and to design an effective screening assay, we used AlphaLISA technology from Perkin Elmer. This technology involves binding a biotin-labelled control DNA oligonucleotide (btn-In3-PD) to a streptavidin-coated donor (SA-donor) bead. hSSB1 is bound to an anti-hSSB1 sheep antibody as described previously, which binds to Protein G-coated acceptor beads. When hSSB1 and btn-In3-PD bind, they bring the two beads close together, and with excitation at 680 nm by laser irradiation, the phthalocyanine in the donor bead excites ambient oxygen to a reactive form of O2. When this is within 200 nm of a europium-containing acceptor bead (during a binding event), the reactive oxygen is transferred to the thioxene derivative, producing light at 615 nm. Without the acceptor bead, oxygen returns to its ground state. This lends the assay to a competition-based format for high- […]\nA titration matrix is required to optimise assay conditions to develop an AlphaLISA assay that accurately acquires results and subsequently follows the Cheng-Prusoff equation to report IC50’s as a molecule Kd. […] This is determined by finding the hook point of signal, which indicates the highest signal before the bead is saturated, after which a decrease in signal is observed. […]"}, "hSSB1 [2]": {"molecular_target": "T1, hSSB1", "assay": "Electrophoretic mobility shift assay (EMSA), competition with Cy5-labelled ssDNA probe", "format": "binding", "details": "tested from 200 to 0.091 μM", "description": "These were performed in 10 μL reactions of 10 mM Tris (pH 7.5), 100 mM NaCl, 0.01% IGEPAL, and 1 mM DTT. Two 5 μL solutions were prepared. The first mix contained hSSB1 with the compound of interest, which were incubated together for 10 min before the addition of the probe molecule, Cy5-labelled In3-PS. The combined solution was incubated for 30 min at 37 °C, before loading dye was added and the samples were loaded into 10% polyacrylamide TBE gels. These gels were run for 1.5 h in a cold room at 80 V before being imaged using a ChemiDoc Imaging System (BioRad, Hercules, CA, USA) and quantified using ImageStudio Lite (Version 5.2) software.\nThe optimal conditions for the EMSAs were established using a titration matrix of hSSB1 and Cy5-labelled In3-PD concentrations. Concentrations of hSSB1 from 1000 to 0.26 nM and Cy5-labelled In3-PD at 1 nM and 5 nM were tested. The final conditions were established as 15 nM hSSB1 and 1.5 nM Cy5-labelled In3-PS, where the In3-PS is 100% bound. The concentrations of the MS-ML compounds of Merck KGaA, Darmstadt, Germany, were tested from 100 to 0.046 μM, and the concentrations of the novel DAZLN compounds were tested from 200 to 0.091 μM."}, "hSSB1 [3]": {"molecular_target": "T1, hSSB1", "assay": "AlphaLISA Mini Library screen", "format": "binding", "details": "for inhibition at 10 µM: triplicate", "description": "In parallel to the rational design of small-molecule inhibitors, we acquired access to the Open Innovation Mini Library of small compounds from Merck KGaA, Darmstadt, Germany. This library consisted of 80 compounds at 10 mM in DMSO that had been investigated against other targets, from receptor blockers to protein inhibitors. The goal of screening this library was to test various scaffolds for their affinity to hSSB1.\nUsing a FlexDrop iQ, 16 nL of each compound was dispensed onto a white low-volume 384-well microplate (PerkinElmer, Shelton, CT, USA) in triplicate at an assay concentration of 10 μM. In3-PS was used as the positive control binding entity at a concentration of 1 μM. The AlphaLISA assay conditions are described in Section 2.4. The hit cut-off used was an average inhibition of 30% across the three repeats. The plate was read using an EnSight Multimode Plate Reader (PerkinElmer, Shelton, CT, USA) at 10, 60, and 120 min."}, "U2OS cells": {"system": "U2OS cells", "assay": "CellTitre-Glo cytotoxicity assay", "format": "cell-based, human", "details": "48 h incubation, 30—0.0492 μM, CTG", "description": "The osteosarcoma cell line U2OS was purchased from the American Type Culture Collection (ATCC) and seeded at a density of 500 cells/well in a 384-well plate. They were maintained at 37 °C in a humidified atmosphere containing 5% CO2 in Roswell Park Memorial Institute […] (RPMI) medium (ThermoFisher Scientific, Inc., Brisbane, Australia) supplemented with 10% (v/v) heat-inactivated foetal bovine serum (FBS) (ThermoFisher Scientific). A cytotoxicity assay was conducted to test the impact of the three Merck KGaA, Darmstadt, Germany, compounds (MS-ML24, MS-ML25, MS-ML26) on cell viability. Increasing concentrations of each MS-ML compound were added from […] in serial dilutions of 2.5 (n = 4). The cells were incubated with the compound for 48 h before the CellTitre-Glo (CTG) (Promega) assay was performed as per the manufacturer’s instructions. The plate was read on an EnSight Multimode Plate Reader (PerkinElmer, Shelton, CT, USA)."}}, "note": "pKd: −log10 of the molar value.", "data": [{"smiles": "O=c1cc2oc3cc(O)c(O)cc3c(-c3ccccc3O)c-2cc1O", "note": "[9-hydroxyphenylfluoron]", "values": [{"measurement": "concentration at which 50% bound", "setting": "E. coli SSB", "result": "~ 25 μM"}]}, {"smiles": "COc1ccc2cc([C@H]3CC(c4cn(C)c5cc(OC)ccc45)=NN3)ccc2c1", "note": "[DAZLN-51]", "values": [{"measurement": "binding to hSSB1 in the AlphaLISA", "setting": "hSSB1 [1]", "result": "no binding"}, {"measurement": "binding to hSSB1 / inhibition in the EMSA", "setting": "hSSB1 [2]", "result": "no inhibition was observed"}]}, {"smiles": "COc1ccc2cc([C@H]3CC(c4cn(C)c5cc(OC)ccc45)=NN3C(=O)CCCC(=O)NCC(=O)N3CCOCC3)ccc2c1", "note": "[DAZLN-56]", "values": [{"measurement": "binding to hSSB1 in the AlphaLISA", "setting": "hSSB1 [1]", "result": "low level of binding"}, {"measurement": "binding to hSSB1 / inhibition in the EMSA", "setting": "hSSB1 [2]", "result": "not reflected in the EMSA"}]}, {"smiles": "CCCCCCN(Cc1ccc(C#Cc2ccc(CCCC)cc2)cc1)c1ccc(O)c(C(=O)O)c1", "note": "[MS-ML24]", "values": [{"measurement": "pKd", "setting": "hSSB1 [1]", "result": 6.84}, {"measurement": "inhibition at 10 µM", "setting": "hSSB1 [3]", "result": "> 45", "unit": "%"}]}, {"smiles": "CCCCCCN(Cc1ccc(C#Cc2ccc(CCCC)cc2)cc1)C(=O)c1ccc(O)c(C(=O)O)c1", "note": "[MS-ML25]", "values": [{"measurement": "inhibition at 10 µM", "setting": "hSSB1 [3]", "result": "> 45", "unit": "%"}]}, {"smiles": "CCCCCCN(Cc1ccc(C#Cc2ccc(CCCC)cc2)cc1)c1ccc(F)c(C(=O)O)c1", "note": "[MS-ML26]", "values": [{"measurement": "pKd", "setting": "hSSB1 [1]", "result": 6.70}, {"measurement": "result in initial screen relative to hit threshold", "setting": "hSSB1 [3]; 10 μM, hit cut-off average inhibition of 30%", "result": "slightly lower than the threshold set for the screen"}]}, {"smiles": "CCOc1ccc2cc(C3CC(c4ccc(I)cc4)=NN3C(=O)CCCC(=O)O)c(Cl)nc2c1", "note": "(stereo not drawn) [TDRL-551]", "values": [{"measurement": "cytotoxic effect in U2OS cells", "setting": "U2OS cells", "result": "no cytotoxic effect"}]}, {"smiles": "O=c1c(O)cccc2cc(O)c(O)c(O)c12", "note": "[purpurogallin]", "values": [{"measurement": "concentration at which 50% bound", "setting": "E. coli SSB", "result": "~ 25 μM"}]}]}
